Data: patent US20210317140A1, “Heterocyclic Compounds and Methods of Use” (MEDIVATION TECHNOLOGIES, INC, priority 2013, published 2021)
Where “and” joins values, the source holds several entries; their conditions need not be identical. Equal entries are not always repeated.

How the values were obtained:
BTK = biological target: T1, BTK (Homo sapiens, UniProt Q06187); assay: BTK kinase assay (HotSpot, 33P ATP); format: biochemical; conditions: for BTK @ 0.1 μM (% Inh): 0.1 μM compound; for BTK @ 0.1 μM (% Inh) / BTK @ 1 μM (% Inh) / BTK @ 0.01 μM (% Inh): 10 μM ATP; for BTK @ 1 μM (% Inh): 1 μM compound; for BTK @ 0.01 μM (% Inh): 0.01 μM compound; for IC50: 10 dose IC50, 10 μM ATP
T1 construct: purchased Reaction Biology Corporation
Procedure: (§1) Compounds of the invention were profiled in a 10 dose IC50 panel against BTK and PI3Kδ, both provided by Reaction Biology Corporation.
BTK assay: In vitro profiling protein kinases was performed using the “HotSpot” assay platform. Briefly, specific kinase/substrate pairs along with required cofactors were prepared in reaction buffer. Compounds were prepared as 10 mM stock solutions in DMSO. Compounds were delivered into the reaction, followed 15-20 minutes later by addition of a mixture of ATP (Sigma, St. Louis Mo.) and ^33P ATP (Perkin Elmer, Waltham Mass.) to a final concentration of 10 μM. […] IC50 values and curve fits were obtained using Prism (GraphPad Software). Buffer Conditions: 20 mM Hepes (pH 7.5), 10 mM MgCl2, 1 mM EGTA, 0.02% Brij35, 0.02 mg/mL BSA, 0.1 mM Na3VO4, 2 mM DTT, 1% DMSO.

PI3Kδ = biological target: T2, PI3Kδ (Homo sapiens, UniProt O00329); assay: PI3Kδ kinase assay (HTRF, PIP3 detection); format: biochemical; conditions: for PI3Kδ @ 0.1 μM (% Inh): 0.1 μM compound; for PI3Kδ @ 0.1 μM (% Inh) / PI3Kδ @ 1 μM (% Inh) / PI3Kδ @ 0.01 μM (% Inh): 10 μM ATP; for PI3Kδ @ 1 μM (% Inh): 1 μM compound; for PI3Kδ @ 0.01 μM (% Inh): 0.01 μM compound; for IC50: 10 dose IC50, 10 μM ATP
T2 construct: purchased Reaction Biology Corporation
From the text: as §1
PI3Kδ assay: The PIP3 product is detected by displacement of biotin-PIP3 from an energy transfer complex consisting of Europium labeled anti-GST monoclonal antibody, a GST-tagged pleckstrin homology (PH) domain, biotinylated PIP3 and Streptavidin-Allophycocyanin (APC). […] The PIP3 product formed by PI 3-Kinase(h) activity displaces biotin-PIP3 from the complex resulting in a loss of energy transfer and thus a decrease in signal. This is a 3-step reaction: First, the kinase reaction with PIP2 substrate is carried out in the presence of ATP (10 μM), and the reaction is quenched with stop Solution, and then finally detect by adding Detection Mixture followed by incubation (10 min). Reaction procedure: 1) Prepare substrate in freshly prepared Reaction Buffer. 2) Deliver kinase into the substrate solution and gently mix. 3) Deliver compounds in 100% DMSO (1 μM) into the kinase reaction mixture by Acoustic technology (Echo550; nanoliter range), incubate for 10 min at RT. 4) Deliver ATP into the reaction mixture to initiate the reaction. 5) Incubate for 30 min at 30° C. 6) Quench the reaction with Stop Solution. 7) Add Detection Mixture, and incubate for overnight. […] The emission ratio is converted into μM PIP3 production based on PIP3 standard curves. The nonlinear regression to obtain the standard curve and IC50 values are performed using Graphpad Prism software. Assay Buffer: HEPES 50 mM (pH7.0), NaN3 0.02%, BSA 0.01%, Orthovanadate 0.1 mM, 1% DMSO. Detection buffer: HEPES 10 mM (pH7.0), BSA 0.02%, KF 0.16 M, EDTA 4 mM. Substrate: 10 μM PIP2 substrate (PI(4,5)P2).

T1 sequence (Q06187 whole entry): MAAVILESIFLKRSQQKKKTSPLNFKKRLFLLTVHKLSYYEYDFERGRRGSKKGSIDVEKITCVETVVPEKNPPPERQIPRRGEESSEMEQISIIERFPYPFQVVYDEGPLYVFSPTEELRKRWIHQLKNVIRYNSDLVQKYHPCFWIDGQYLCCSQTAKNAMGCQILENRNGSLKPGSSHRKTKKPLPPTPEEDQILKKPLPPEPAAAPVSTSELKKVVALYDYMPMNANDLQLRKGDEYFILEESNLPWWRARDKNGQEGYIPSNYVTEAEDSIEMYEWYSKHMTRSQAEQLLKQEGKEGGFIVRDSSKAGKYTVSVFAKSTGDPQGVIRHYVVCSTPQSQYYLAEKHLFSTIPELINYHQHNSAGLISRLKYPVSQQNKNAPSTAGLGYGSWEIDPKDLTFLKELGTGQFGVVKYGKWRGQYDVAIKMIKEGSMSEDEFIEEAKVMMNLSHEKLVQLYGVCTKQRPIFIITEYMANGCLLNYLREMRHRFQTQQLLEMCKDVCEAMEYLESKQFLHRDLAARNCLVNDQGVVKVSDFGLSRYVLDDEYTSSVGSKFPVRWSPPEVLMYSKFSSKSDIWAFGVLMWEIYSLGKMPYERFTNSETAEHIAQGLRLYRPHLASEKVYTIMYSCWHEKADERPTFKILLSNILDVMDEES
T2 sequence (O00329 whole entry): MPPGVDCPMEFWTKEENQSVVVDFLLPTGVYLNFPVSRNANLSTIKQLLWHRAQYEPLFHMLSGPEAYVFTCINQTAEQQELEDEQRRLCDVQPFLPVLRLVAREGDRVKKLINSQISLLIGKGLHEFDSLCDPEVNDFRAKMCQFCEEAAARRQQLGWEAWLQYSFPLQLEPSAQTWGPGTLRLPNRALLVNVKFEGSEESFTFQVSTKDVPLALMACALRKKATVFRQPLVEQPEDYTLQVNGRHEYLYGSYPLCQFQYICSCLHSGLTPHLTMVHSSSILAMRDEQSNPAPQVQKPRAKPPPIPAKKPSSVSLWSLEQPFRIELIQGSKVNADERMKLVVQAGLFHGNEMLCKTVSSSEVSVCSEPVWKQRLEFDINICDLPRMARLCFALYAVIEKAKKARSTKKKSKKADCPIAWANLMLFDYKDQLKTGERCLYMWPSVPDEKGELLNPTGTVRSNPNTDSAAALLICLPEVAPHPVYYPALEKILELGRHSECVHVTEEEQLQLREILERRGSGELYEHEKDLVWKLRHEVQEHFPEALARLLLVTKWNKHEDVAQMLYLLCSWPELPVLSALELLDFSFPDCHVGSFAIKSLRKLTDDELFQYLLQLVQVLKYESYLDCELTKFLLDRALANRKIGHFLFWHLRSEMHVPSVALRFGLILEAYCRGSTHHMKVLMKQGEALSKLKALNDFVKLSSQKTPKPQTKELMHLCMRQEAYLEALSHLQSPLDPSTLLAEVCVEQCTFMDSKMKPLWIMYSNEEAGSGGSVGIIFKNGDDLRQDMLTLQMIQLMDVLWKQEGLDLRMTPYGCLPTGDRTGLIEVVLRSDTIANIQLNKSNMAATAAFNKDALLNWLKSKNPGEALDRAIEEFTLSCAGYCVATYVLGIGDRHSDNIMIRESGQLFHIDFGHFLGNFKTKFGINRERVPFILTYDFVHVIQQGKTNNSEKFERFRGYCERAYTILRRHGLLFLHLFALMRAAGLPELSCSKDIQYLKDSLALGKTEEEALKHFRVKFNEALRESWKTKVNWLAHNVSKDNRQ
T2 sequence (P27986 whole entry partner): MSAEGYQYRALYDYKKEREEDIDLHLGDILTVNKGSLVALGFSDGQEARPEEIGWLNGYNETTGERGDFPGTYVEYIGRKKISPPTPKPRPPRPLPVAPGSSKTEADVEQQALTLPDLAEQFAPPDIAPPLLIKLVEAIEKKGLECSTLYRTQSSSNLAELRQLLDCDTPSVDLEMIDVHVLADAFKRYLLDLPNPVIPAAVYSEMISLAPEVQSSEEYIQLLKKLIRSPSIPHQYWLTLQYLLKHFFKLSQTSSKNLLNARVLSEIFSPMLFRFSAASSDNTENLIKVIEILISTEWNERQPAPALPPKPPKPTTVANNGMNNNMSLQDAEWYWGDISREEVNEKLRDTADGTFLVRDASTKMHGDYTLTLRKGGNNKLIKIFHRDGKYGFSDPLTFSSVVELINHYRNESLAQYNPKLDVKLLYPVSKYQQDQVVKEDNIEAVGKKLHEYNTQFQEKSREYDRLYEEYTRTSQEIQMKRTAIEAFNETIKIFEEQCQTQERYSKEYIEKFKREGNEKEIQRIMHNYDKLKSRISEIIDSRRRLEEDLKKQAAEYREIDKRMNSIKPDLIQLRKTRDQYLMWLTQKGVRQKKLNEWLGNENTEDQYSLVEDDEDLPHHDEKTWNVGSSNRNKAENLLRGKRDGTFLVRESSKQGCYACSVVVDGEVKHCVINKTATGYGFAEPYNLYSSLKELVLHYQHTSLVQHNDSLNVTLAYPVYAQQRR

BTK @ 0.1 μM (% Inh) (BTK)	BTK @ 1 μM (% Inh) (BTK)	PI3Kδ @ 0.1 μM (% Inh) (PI3Kδ)	PI3Kδ @ 1 μM (% Inh) (PI3Kδ)	BTK @ 0.01 μM (% Inh) (BTK)	PI3Kδ @ 0.01 μM (% Inh) (PI3Kδ)	IC50 (BTK)	IC50 (PI3Kδ)	SMILES
4.02 % Inh	7.69 % Inh	−4.81 % Inh	11.18 % Inh					Nc1ncnc2c1c(CCCO)nn2C1Cc2ccccc2C1 (single isomer, unassigned) [Compound No. 65, 3-[4-amino-1-(2,3-dihydro-1H-inden-2-yl)-1H-pyrazolo[3,4-d]pyrimidin-3-yl]propan-1-ol]
22.48 % Inh		71.5 % Inh		8.16 % Inh	29.77 % Inh			N#Cc1ccc(-c2nn(C3Cc4ccccc4C3)c3ncnc(N)c23)cc1O [Compound No. 94, 4-[4-amino-1-(2,3-dihydro-1H-inden-2-yl)-1H-pyrazolo[3,4-d]pyrimidin-3-yl]-2-hydroxybenzonitrile]
24.51 % Inh	71.58 % Inh	47.56 % Inh	89.24 % Inh			0.392 µM	0.0639 µM	CCOc1ccc(-c2nn(C3Cc4ccccc4C3)c3ncnc(N)c23)cc1OC [Compound No. 71, 1-(2,3-dihydro-1H-inden-2-yl)-3-(4-ethoxy-3-methoxyphenyl)-1H-pyrazolo[3,4-d]pyrimidin-4-amine]
24.0 % Inh		51.94 % Inh						Nc1ncnc2c1c(-c1cnc3[nH]ccc3c1)nn2C1CCc2ccccc2C1 (racemic) [compound 16, 3-(1H-pyrrolo[2,3-b]pyridin-5-yl)-1-(1,2,3,4-tetrahydronaphthalen-2-yl)-1H-pyrazolo[3,4-d]pyrimidin-4-amine]
29.59 % Inh		15.52 % Inh						Nc1ncnc2c1c(-c1ccc3cc[nH]c3c1)nn2C1CCc2ccccc21 (stereo not drawn) [compound 37, 1-(2,3-dihydro-1H-inden-1-yl)-3-(1H-indol-6-yl)-1H-pyrazolo[3,4-d]pyrimidin-4-amine]
						0.0698 µM	2.39 µM	Nc1ncnc2c1c(-c1ccc(F)cc1)nn2C1CCc2ccccc2C1 (racemic) [compound 13, 3-(4-fluorophenyl)-1-(1,2,3,4-tetrahydronaphthalen-2-yl)-1H-pyrazolo[3,4-d]pyrimidin-4-amine]
4.89 % Inh		80.15 % Inh						Nc1ncnc2c1c(-c1cc(O)cc(F)c1)nn2C1CCCc2ccc(F)cc21 (stereo not drawn) [compound 41, 3-[4-amino-1-(7-fluoro-1,2,3,4-tetrahydronaphthalen-1-yl)-1H-pyrazolo[3,4-d]pyrimidin-3-yl]-5-fluorophenol]
6.81 % Inh	7.63 % Inh	55.46 % Inh	85.89 % Inh					Nc1ncnc2c1c(-c1cc(O)cc(OC(F)(F)F)c1)nn2C1Cc2ccccc2C1 [Compound No. 72, 3-[4-amino-1-(2,3-dihydro-1H-inden-2-yl)-1H-pyrazolo[3,4-d]pyrimidin-3-yl]-5-(trifluoromethoxy)phenol]
11.64 % Inh	30.18 % Inh	41.76 % Inh	82.95 % Inh					Cc1nc2ccc(-c3nn(C4Cc5ccccc5C4)c4ncnc(N)c34)cc2[nH]1 [Compound No. 82, 1-(2,3-dihydro-1H-inden-2-yl)-3-(2-methyl-1H-1,3-benzodiazol-6-yl)-1H-pyrazolo[3,4-d]pyrimidin-4-amine]
20.21 % Inh		27.39 % Inh						Nc1ncnc2c1c(-c1ccc(Cl)nc1)nn2C1CCc2ccccc2C1 (stereo not drawn) [compound 25, 3-(6-chloro-3-pyridyl)-1-tetralin-2-yl-pyrazolo[3,4-d]pyrimidin-4-amine]
45.81 % Inh and 37.23 % Inh	87.24 % Inh	24.12 % Inh and 30.2 % Inh	67.63 % Inh					Nc1ncnc2c1c(-c1ccc3cc[nH]c3c1)nn2C1Cc2ccccc2C1 [Compound No. 39, 1-(2,3-dihydro-1H-inden-2-yl)-3-(1H-indol-6-yl)-1H-pyrazolo[3,4-d]pyrimidin-4-amine]
13.50 % Inh		11.3 % Inh				0.877 µM	1.49 µM	C=CC(=O)N1CC(n2nc(-c3cnc(OC)c(F)c3)c3c(N)ncnc32)Cc2cc(C)ccc21 (stereo not drawn) [compound 32, 1-(3-(4-amino-3-(5-fluoro-6-methoxypyridin-3-yl)-1H-pyrazolo[3,4-d]pyrimidin-1-yl)-6-methyl-3,4-dihydroquinolin-1 (2H)-yl)prop-2-en-1-one]
16.63 % Inh	45.41 % Inh	32.36 % Inh	71.04 % Inh					COc1cncc(-c2nn(C3Cc4ccccc4C3)c3ncnc(N)c23)c1 [Compound No. 61, 1-(2,3-dihydro-1H-inden-2-yl)-3-(5-methoxypyridin-3-yl)-1H-pyrazolo[3,4-d]pyrimidin-4-amine]
95.07 % Inh		90.95 % Inh		80.96 % Inh	65.26 % Inh			Nc1ccc2c(c1)CC(n1nc(-c3cc(O)c(F)c(F)c3)c3c(N)ncnc31)C2 (stereo not drawn) [compound 139, 5-[4-amino-1-(5-amino-2,3-dihydro-1H-inden-2-yl)-1H-pyrazolo[3,4-d]pyrimidin-3-yl]-2,3-difluorophenol]
						0.293 µM	0.0396 µM	Nc1ncnc2c1c(-c1ccc(O)c(F)c1)nn2C1CCc2ccccc2C1 (stereo not drawn) [compound 22, 4-(4-amino-1-(1,2,3,4-tetrahydronaphthalen-2-yl)-1H-pyrazolo[3,4-d]pyrimidin-3-yl)-2-fluorophenol]
74.7 % Inh		56.02 % Inh		17.28 % Inh	−6.1 % Inh			Nc1ncnc2c1c(-c1cc(O)c(F)c(F)c1)c(Cl)n2C1Cc2ccccc2C1 [compound 134, 5-[4-amino-6-chloro-7-(2,3-dihydro-1H-inden-2-yl)-7H-pyrrolo[2,3-d]pyrimidin-5-yl]-2,3-difluorophenol]
49.32 % Inh	87.47 % Inh	12.84 % Inh	44.54 % Inh					Nc1cccc(-c2nn(C3Cc4ccccc4C3)c3ncnc(N)c23)c1 [Compound No. 45, 3-(3-aminophenyl)-1-(2,3-dihydro-1H-inden-2-yl)-1H-pyrazolo[3,4-d]pyrimidin-4-amine]
14.06 % Inh		29.59 % Inh		11.7 % Inh	24.66 % Inh			N#Cc1cc(-c2nn(C3Cc4ccccc4C3)c3ncnc(N)c23)ccc1F [Compound No. 97, 5-[4-amino-1-(2,3-dihydro-1H-inden-2-yl)-1H-pyrazolo[3,4-d]pyrimidin-3-yl]-2-fluorobenzonitrile]
29.9 % Inh								COc1ccc(-c2nn(C3Cc4ccccc4C3)c3ncnc(N)c23)cc1OC [Compound No. 35, 1-(2,3-dihydro-1H-inden-2-yl)-3-(3,4-dimethoxyphenyl)-1H-pyrazolo[3,4-d]pyrimidin-4-amine]
